We go through 2 molecules from paper PMC3520974, “Differential Dynamic Engagement within 24 SH3 Domain: Peptide Complexes Revealed by Co-Linear Chemical Shift Perturbation Analysis” (PLoS ONE, 2012).

In experiment [1] the test system is Abp1p SH3 domain (AbpSH3). Put plainly: Isothermal titration calorimetry of peptide binding to AbpSH3. More on the design: species or system yeast. The protocol:
Binding isotherms were recorded as previously at 30°C [23]. Enthalpy changes were measured at 4 different temperatures (20, 25, 30, 35°C) and the slopes of temperature vs. enthalpy change were fit to yield the change in heat capacity. All samples were in 50 mM sodium phosphate, 100 mM NaCl, 1 mM EDTA pH 7.0. Errors are ±95% confidence intervals except the ΔCP values, which report the standard error of the least squared fit to the data (ΔH vs. temperature).

The test system of experiment [2] is Abp1p SH3 domain (AbpSH3). Description: Co-linear chemical shift perturbation (CCSP) analysis of peptide-saturated AbpSH3 complexes by NMR. Particulars: rank among the 24 complexes; >99% peptide-saturated. It is filed as binding, yeast. How it is done: NMR experiments were carried out at 30°C on Varian 500 MHz spectrometers equipped with pulsed field gradients and a triple resonance probe with actively shielded z-gradients. Data were processed and analyzed using nmrPipe/nmrDraw and nmrView. All spectra were recorded in 50 mM sodium phosphate, 100 mM NaCl, 1 mM EDTA pH 7.0. ^1H-^15N HSQC spectra were collected using standard methods. ^1H-^13C HSQC spectra were recorded using constant time HSQC experiments.
AbpSH3 complexes were assigned using the established assignments of ArkA-bound and free AbpSH3 [8]; serial peptide additions were used to monitor the direction that the peaks moved to assign the final position of the SH3 resonances. […] The assignments were also compared to the previously determined ArkA-AbpSH3 complex resonances. […]
The combined ^1H and ^15N chemical shift differences (in ppm) between each pair of resonances that define the lines x, y and z were calculated using the following expression: δΔ = √((Nppm shift * 0.1)^2+(Hppm shift)^2), where Nppm shift is the difference in ppm in the nitrogen dimension and Hppm is the difference in ppm in the proton dimension. The perpendicular distance (p) between the resonance and the CCSP line was calculated in the following way: p = √(x^2−s^2), where x = length of line connecting resonance to peptide free resonance and s = scalar projection. […]

Experiment [3] has as its system Abp1p SH3 domain (AbpSH3). Description: Hydrogen exchange protection of AbpSH3 complexes by NMR. Particulars: sum of log amide protection factors of SII residues; 99% peptide-saturated 100 µM AbpSH3 in D2O, pH 7.0, 18°C, HSQC every 20 minutes over 24 hours. The class given is binding, yeast. How it is done: All hydrogen exchange experiments were conducted in 50 mM sodium phosphate, 100 mM NaCl, 1 mM EDTA pH 7.0, 18°C. Based on the known binding constants, sufficient peptide was added to 100 µM AbpSH3 such that 99% saturation was achieved (this was confirmed by comparing the chemical shifts of previously recorded peptide-saturated samples) for 7 different AbpSH3 complexes (Table S4). The samples were lyophilized and resuspended in D2O, and ^1H-^15N HSQC spectra were recorded every 20 minutes over a period of 24 hours. Many peaks disappeared over time. Intensities of peaks were fit to exponential curves, to yield observed rate constants (kexchange) for each amide group. The rate constant was converted to log protection factor (P), log10(kintrinsic/kexchange) using values for amide protection of free amino acids (http://hx2.med.upenn.edu/download.html). […] These residues became protected to different degrees in the different complexes although they all still exchanged sufficiently fast for their rates to be accurately calculated within the timeframe of the experiment. The biggest difference for the sum between complexes is about 20, which corresponds to a residue ΔΔG of −2.8 kcal/mol, which is approximately the difference between the strongest and weakest peptide binding energy.

Experiment [4] addresses T1, Abp1p SH3 domain (SH3 domain from the yeast Actin Binding Protein 1) (yeast, UniProt P15891 532-592).
T1 construct: 15N-labelled for the NMR work; also called AbpSH3
T1 sequence (looked up): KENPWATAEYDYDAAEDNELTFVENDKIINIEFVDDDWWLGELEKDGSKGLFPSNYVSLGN
Put plainly: NMR titration; 1H-15N HSQC of AbpSH3 (70-100 µM) with serial peptide additions to 99% or greater saturation; 30°C; 50 mM sodium phosphate, 100 mM NaCl, 1 mM EDTA pH 7.0. Particulars: both partners purified.

Turning to “PRR: 15-residue peptide found N-terminal to AbpSH3 (residues 516 to 530 in Abp1p) (Ac-AAPPPPPRRATPEKK-NH2)”, the “change in heat capacity (ΔCp) on complex formation” value in experiment [1] (ITC, enthalpy changes at 20, 25, 30, 35°C, slope of ΔH vs. temperature, 50 mM sodium phosphate, 100 mM NaCl, 1 mM EDTA pH 7.0) is about 0 kcal/mol K. For the same molecule, the binding energy result in experiment [1] (rank among the 24 complexes, ITC at 30°C) was “the lowest measured”. Moreover, the “CCSP values in AbpSH3” value in experiment [2] is “lowest”. Besides, the “SII hydrogen exchange protection (Σ LogP in SII)” value in experiment [3] was about 0.

B1: PRR1, 15-residue peptide found N-terminal to AbpSH3 (residues 516 to 530 in Abp1p) (peptide, UniProt P15891 516-530, looked up)
peptide: Ac-AAPPPPPRRATPEKK-NH2
notes: residues 516 to 530 of yeast Abp1p, proline-rich region N-terminal to the SH3 domain, 15 residues; source: synthetic peptide (Biomer tech), purified to greater than 95% by HPLC
As for B1, in experiment [4], the binding result was “binds”.
